In brackets after ≈: the same amount, converted by molar mass. Numbered stars: 1 amine (or outer) side, 2 acyl side, 3 side chain; on linkers, the order of the positions; unused ones are H or OH. Bridge positions count the residues as written; N and C are the ends. Square brackets hold non-standard residues; d marks the D form. Peptide text beside a SMILES is read from it. * marks the point of attachment. Phe(3R-OH) = O=C([C@@H](N[*:1])[C@H](O[*:3])c1ccccc1)[*:2]; NMeTrp(4-OMe) = CN[C@@H](Cc1c[nH]c2cccc(OC)c12)C(=O)O; NMeaIle = CC[C@@H](C)[C@H](NC)C(=O)O; NMe2Val = CC(C)[C@@H](C(=O)*)N(C)C; NMeT = CN[C@H](C(=O)O)[C@@H](C)O; NMeL = CN[C@@H](CC(C)C)C(=O)O; NMeV = CN[C@H](C(=O)O)C(C)C

Results on five compounds are retold here after ChEMBL document CHEMBL5223096, “Potential therapeutic targets from Mycobacterium abscessus (Mab): recently reported efforts towards the discovery of novel antibacterial agents to treat Mab infections” (RSC Med Chem, 2022).

Assay [1] relates to Mycobacteroides abscessus. Description: Antimycobacterial activity against Mycobacterium abscessus. The class given is functional.
A short description of assay [2]: Binding affinity to Mycobacterium abscessus ClpC1 by SPR assay. The arrangement: species or system Mycobacteroides abscessus. A general note: SPR reads the build-up and loss of mass on a sensor chip optically.
For assay [3], the system named is Mycobacterium tuberculosis. Description: Antimycobacterial activity against Mycobacterium tuberculosis. The class given is functional.

As a reminder, the MIC is the least concentration at which growth counts as inhibited. A lower MIC goes with a more susceptible organism. As to `Cc1cc(C)c2cc(C(=O)NC3CCCCCC3)[nH]c2c1`, the MIC in assay [1] was found to be 0.06 µM (≈ 0.0171 µg/mL). One may read the MIC50 as the lowest concentration that inhibits either 50% of growth or 50% of the strains tested, depending on the study. `CC(C)COc1nn(-c2ccc(Oc3ccccc3)cc2)c(=O)o1`: the MIC50 in assay [1] came to 33 µM (≈ 10.8 µg/mL). For orientation: Kd means the constant that tells how readily two partners part at equilibrium. Lower therefore signals tighter binding. Consider `C/C=C/C[C@@H]1NC(=O)[C@H](CC(C)C)N2C(=O)[C@H](C[C@H](C)[C@H]2O)N(C)C(=O)[C@H](C)NC(=O)[C@H](Cc2ccc(O)c([N+](=O)[O-])c2)NC(=O)[C@H](CC(C)C)N(C)C(=O)[C@H](Cc2cn(C(C)(C)C3CO3)c3ccccc23)NC1=O` (some centres not stated), for which inhibition of growth in assay [1] (MIC) required 0.42 µM (≈ 0.438 µg/mL). In assay [2], the Kd was 100 nM. In assay [3], `CC[C@@H](C)[C@@H](C(=O)N[C@@H]1C(=O)N(C)[C@@H]([C@@H](C)O)C(=O)N[C@@H](C(C)C)C(=O)N(C)[C@@H](CC(C)C)C(=O)N[C@@H](C(C)C)C(=O)N(C)[C@@H](C(C)C)C(=O)N(C)[C@@H](Cc2c[nH]c3cccc(OC)c23)C(=O)N[C@@H](C(C)C)C(=O)N[C@@H]([C@H](O)c2ccccc2)C(=O)N[C@@H](C(C)C)C(=O)O[C@@H]1C)N(C)C(=O)[C@@H](NC(=O)[C@H](C(C)C)N(C)C)C(C)C` (NMe2Val-V[NMeaIle]T[NMeT]V[NMeL]V[NMeV][NMeTrp(4-OMe)]V[Phe(3R-OH)]V; ester 3-C) yielded an MIC of 0.16 µM (≈ 0.256 µg/mL). The compound further came in with a Kd in assay [2] of 100 nM. On to `CCCCCCCCCCCCCCCCOP1(=O)OCCC(C(=O)OC)=C(C)O1` (racemic), for which the MIC50 in assay [1] turned out to be 0.37 µM (≈ 0.165 µg/mL).
